Experimental data from US7888464B2, “Hepatitis C virus inhibitors” (Bristol-Myers Squibb Company, priority 2006, dated 2011).
Read-outs that look alike come from different tables or passages of the source.

How the values were obtained:
[1] = molecular target: T1, HCV NS3/4A protease complex, BMS strain (genotype 1a) (UniProt P27958, species not given/STRAIN_BMS); assay: FRET peptide assay to monitor HCV NS3/4A proteolytic activity (BMS strain); format: biochemical; details: NS3/4A BMS strain, read-out: HCV Protease (IC50)
T1 construct: "DNA encoding the recombinant HCV NS3/4A protease complex (amino acids 1027 to 1711) for these strains" (said of H77 and J4L6S, not expressly of BMS); given for the H77/J4L6S constructs only
T1 sequence (P27958 1027-1657, stated change not applied, one chain of several): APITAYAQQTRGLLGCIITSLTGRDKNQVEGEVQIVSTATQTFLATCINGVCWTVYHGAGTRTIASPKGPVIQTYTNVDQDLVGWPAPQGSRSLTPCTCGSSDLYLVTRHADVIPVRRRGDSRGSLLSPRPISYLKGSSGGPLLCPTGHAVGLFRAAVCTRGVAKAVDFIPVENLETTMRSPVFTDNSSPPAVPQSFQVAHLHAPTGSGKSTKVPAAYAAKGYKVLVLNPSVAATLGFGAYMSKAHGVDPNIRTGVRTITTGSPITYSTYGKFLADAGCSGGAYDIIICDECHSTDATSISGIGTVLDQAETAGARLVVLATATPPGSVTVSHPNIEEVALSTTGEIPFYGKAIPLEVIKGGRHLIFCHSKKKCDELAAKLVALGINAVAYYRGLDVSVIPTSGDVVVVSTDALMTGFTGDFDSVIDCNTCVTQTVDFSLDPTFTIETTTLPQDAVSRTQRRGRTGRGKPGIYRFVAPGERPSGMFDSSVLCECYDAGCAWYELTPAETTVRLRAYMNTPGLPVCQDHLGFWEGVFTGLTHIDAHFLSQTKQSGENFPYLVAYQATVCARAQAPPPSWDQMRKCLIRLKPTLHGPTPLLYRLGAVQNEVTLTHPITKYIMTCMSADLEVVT
From the text: HCV NS3 protease complexes, derived from the BMS strain, H77 strain or J4L6S strain, were generated, as described below. These purified recombinant proteins were generated for use in a homogeneous assay (see below) to provide an indication of how effective compounds of the present disclosure would be in inhibiting HCV NS3 proteolytic activity.
Serum from an HCV-infected patient was obtained from Dr. T. Wright, San Francisco Hospital. An engineered full-length cDNA (compliment deoxyribonucleic acid) template of the HCV genome (BMS strain) was constructed from DNA fragments obtained by reverse transcription-PCR(RT-PCR) of serum RNA (ribonucleic acid) and using primers selected on the basis of homology between other genotype la strains. From the determination of the entire genome sequence, a genotype la was assigned to the HCV isolate according to the classification of Simmonds et al. (See P Simmonds, K A Rose, S Graham, S W Chan, F McOmish, B C Dow, E A Follett, P L Yap and H Marsden, J. Clin. Microbiol., 31(6), 1493-1503 (1993)). […] The infectious clones, H77 (1a genotype) and J4L6S (1b genotype) were obtained from R. Purcell (NIH) and the sequences are published in Genbank (AAB67036, see Yanagi, M., Purcell, R. H., Emerson, S. U. and Bukh, J. Proc. Natl. Acad. Sci. U.S.A. 94(16), 8738-8743 (1997); AF054247, see Yanagi, M., St Claire, M., Shapiro, M., Emerson, S. U., Purcell, R. H. and Bukh, J, Virology 244 (1), 161-172. (1998)).
The H77 and J4L6S strains were used for production of recombinant NS3/4A protease complexes. DNA encoding the recombinant HCV NS3/4A protease complex (amino acids 1027 to 1711) for these strains were manipulated as described by P. Gallinari et al. (see Gallinari P, Paolini C, Brennan D, Nardi C, Steinkuhler C, De Francesco R. Biochemistry. 38(17):5620-32, (1999)). Briefly, a three-lysine solubilizing tail was added at the 3′-end of the NS4A coding region. The cysteine in the P1 position of the NS4A-NS4B cleavage site (amino acid 1711) was changed to a glycine to avoid the proteolytic cleavage of the lysine tag. Furthermore, a cysteine to serine mutation was introduced by PCR at amino acid position 1454 to prevent the autolytic cleavage in the NS3 helicase domain. The variant DNA fragment was cloned in the pET21b bacterial expression vector (Novagen) and the NS3/4A complex was expressed in Escherichia. coli strain BL21 (DE3) (Invitrogen) following the protocol described by P. Gallinari et al. (see Gallinari P, Brennan D, Nardi C, Brunetti M, Tomei L, Steinkuhler C, De Francesco R., J. Virol. 72(8):6758-69 (1998)) with modifications. Briefly, the NS3/4A protease complex expression was induced with 0.5 millimolar (mM) Isopropyl β-D-1-thiogalactopyranoside (IPTG) for 22 hours (h) at 20° C. A typical fermentation (1 Liter (L)) yielded approximately 10 grams (g) of wet cell paste. The cells were resuspended in lysis buffer (10 mL/g) consisting of 25 mM N-(2-Hydroxyethyl)piperazine-N′-(2-Ethane Sulfonic acid) (HEPES), pH 7.5, 20% glycerol, 500 mM Sodium Chloride (NaCl), 0.5% Triton X-100, 1 microgram/milliliter (“μg/mL”) lysozyme, 5 mM Magnesium Chloride (MgCl2), 1 μg/ml DnaseI, 5 mM β-Mercaptoethanol (βME), Protease inhibitor-Ethylenediamine Tetraacetic acid (EDTA) free (Roche), homogenized and incubated for 20 minutes (min) at 4° C. The homogenate was sonicated and clarified by ultra-centrifugation at 235000 g for 1 hour (h) at 4° C. Imidazole was added to the supernatant to a final concentration of 15 mM and the pH adjusted to 8.0. The crude protein extract was loaded on a Nickel-Nitrilotriacetic acid (Ni-NTA) column pre-equilibrated with buffer B (25 mM HEPES, pH 8.0, 20% glycerol, 500 mM NaCl, 0.5% Triton X-100, 15 mM imidazole, 5 mM βME). The sample was loaded at a flow rate of 1 mL/min. The column was washed with 15 column volumes of buffer C (same as buffer B except with 0.2% Triton X-100). The protein was eluted with 5 column volumes of buffer D (same as buffer C except with 200 mM Imidazole). […]

[2] = test system: HCV replicon (strain 1b) in HUH-7 cells; assay: HCV replicon FRET assay; format: cell-based; details: Hepatitis C virus
From the text: An HCV replicon whole cell system was established as described by Lohmann V, Korner F, Koch J, Herian U, Theilmann L, Bartenschlager R., Science 285(5424): 110-3 (1999). This system enabled us to evaluate the effects of our HCV Protease compounds on HCV RNA replication. Briefly, using the HCV strain 1b sequence described in the Lohmann paper (Assession number: AJ238799), an HCV cDNA was synthesized by Operon Technologies, Inc. (Alameda, Calif.), and the full-length replicon was then assembled in plasmid pGem9zf(+) (Promega, Madison, Wis.) using standard molecular biology techniques. The replicon consists of (i) the HCV 5′ UTR fused to the first 12 amino acids of the capsid protein, (ii) the neomycin phosphotransferase gene (neo), (iii) the IRES from encephalomyocarditis virus (EMCV), and (iv) HCV NS3 to NS5B genes and the HCV 3′ UTR. Plasmid DNAs were linearized with ScaI and RNA transcripts were synthesized in vitro using the T7 MegaScript transcription kit (Ambion, Austin, Tex.) according to manufacturer's directions. In vitro transcripts of the cDNA were transfected into the human hepatoma cell line, HUH-7. […] Resulting cell lines were characterized for positive and negative strand RNA production and protein production over time.
The HCV replicon FRET assay was developed to monitor the inhibitory effects of compounds described in the disclosure on HCV viral replication. HUH-7 cells, constitutively expressing the HCV replicon, were grown in Dulbecco's Modified Eagle Media (DMEM) (Gibco-BRL) containing 10% Fetal calf serum (FCS) (Sigma) and 1 mg/ml G418 (Gibco-BRL). Cells were seeded the night before (1.5×10^4 cells/well) in 96-well tissue-culture sterile plates. Compound and no compound controls were prepared in DMEM containing 4% FCS, 1:100 Penicillin/Streptomysin (Gibco-BRL), 1:100 L-glutamine and 5% DMSO in the dilution plate (0.5% DMSO final concentration in the assay). Compound/DMSO mixes were added to the cells and incubated for 4 days at 37° C. After 4 days, cells were first assessed for cytotoxicity using alamar Blue (Trek Diagnotstic Systems) for a CC50 reading. The toxicity of compound (CC50) was determined by adding 1/10th volume of alamar Blue to the media incubating the cells. After 4 h, the fluorescence signal from each well was read, with an excitation wavelength at 530 nm and an emission wavelength of 580 nm, using the Cytofluor Series 4000 (Perspective Biosystems). Plates were then rinsed thoroughly with Phosphate-Buffered Saline (PBS) (3 times 150 μl). The cells were lysed with 25 μl of a lysis assay reagent containing an HCV protease substrate (5× cell Luciferase cell culture lysis reagent (Promega #E153A) diluted to 1× with distilled water, NaCl added to 150 mM final, the FRET peptide substrate (as described for the enzyme assay above) diluted to 10 μM final from a 2 mM stock in 100% DMSO. The plate was then placed into the Cytofluor 4000 instrument which had been set to 340 nm excitation/490 nm emission, automatic mode for 21 cycles and the plate read in a kinetic mode. EC50 determinations were carried out as described for the IC50 determinations.

[3] = activity range symbols of Table 2
[4] = Huh-7, read-out: HCV Pro Replicon (EC50)
[5] = Huh-7, HCV replicon, numeric cells of Table 2, read-out: HCV Pro Replicon (EC50)

| Compound | IC50 [1, 3] [nM] | EC50 [2, 4] [nM] | IC50 ([1]; numeric cells of Table 2) [nM] | EC50 [2, 5] [nM] |
| --- | --- | --- | --- | --- |
| C=C[C@@H]1C[C@]1(NC(=O)[C@@H]1C[C@@](OC)(c2ccc(-c3ccccc3)cc2)CN1C(=O)[C@@H](NC(=O)OC(C)(C)C(F)(F)F)C(C)(C)C)C(=O)NS(=O)(=O)C1CC1 [Cmpd 200, {(S)-1-[(2S,4R)-4-Biphenyl-4-yl-2-((S)-(1R,2S)-1-cyclopropanesulfonylaminocarbonyl-2-vinyl-cyclopropylcarbamoyl)-4-methoxy-pyrrolidine-1-carbonyl]-2,2-dimethyl-propyl}-carbamic acid 2,2,2-trifluoro-1,1-dimethyl-ethyl ester] | 1 to 50 | 1 to 50 |  |  |
| C=C[C@@H]1C[C@]1(NC(=O)[C@@H]1C[C@@](OC)(c2ccc(-c3ccccc3)cc2)CN1C(=O)[C@@H](NC(=O)NC(C)(C)C)C(C)(C)C)C(=O)NS(=O)(=O)C1CC1 [Cmpd 206, (2S,4R)-4-Biphenyl-4-yl-1-[(S)-2-(3-tert-butyl-ureido)-3,3-dimethyl-butyryl]-4-methoxy-pyrrolidine-2-carboxylic acid ((1R,2S)-1-cyclopropanesulfonylaminocarbonyl-2-vinyl-cyclopropyl)-amide] | 1 to 50 | 1 to 50 |  |  |
| C=C[C@@H]1C[C@]1(NC(=O)[C@@H]1C[C@@](OC)(c2ccc(-c3ccccc3)cc2)CN1C(=O)[C@@H](NC(=O)OC(C)(C)C)C(C)(C)C)C(=O)NS(=O)(=O)C1CC1 [Cmpd 106, tert-butyl (S)-1-((2S,4R)-4-(biphenyl-4-yl)-2-((1R,2S)-1-(cyclopropylsulfonylcarbamoyl)-2-vinylcyclopropylcarbamoyl)-4-methoxypyrrolidin-1-yl)-3,3-dimethyl-1-oxobutan-2-ylcarbamate] |  |  | 1 | 11 |
| C=C[C@@H]1C[C@]1(NC(=O)[C@@H]1C[C@@](OC)(c2ccc(-c3ccccc3)cc2)CN1C(=O)[C@H](Nc1cccc(OC)c1)C(C)(C)C)C(=O)NS(=O)(=O)C1CC1 [Cmpd 208, (2S,4R)-4-Biphenyl-4-yl-4-methoxy-1-[(R)-2-(3-methoxy-phenylamino)-3,3-dimethyl-butyryl]-pyrrolidine-2-carboxylic acid ((1R,2S)-1-cyclopropanesulfonylaminocarbonyl-2-vinyl-cyclopropyl)-amide] |  |  | 315 | 1300 |
| CC[C@@H]1C[C@]1(NC(=O)[C@@H]1C[C@@](OC)(c2ccc(-c3ccccc3)cc2)CN1C(=O)[C@@H](NC(=O)OC(C)(C)C)C(C)(C)C)C(=O)NS(=O)(=O)C1CC1 [Cmpd 110] | 1 to 50 | 50 to 500 |  |  |
| C=C[C@@H]1C[C@]1(NC(=O)[C@@H]1C[C@@](OC)(c2ccc(-c3ccccc3)cc2)CN1C(=O)[C@@H](Nc1cccc(OC)c1)C(C)(C)C)C(=O)NS(=O)(=O)C1CC1 [Cmpd 207, (2S,4R)-4-Biphenyl-4-yl-4-methoxy-1-[(S)-2-(3-methoxy-phenylamino)-3,3-dimethyl-butyryl]-pyrrolidine-2-carboxylic acid ((1R,2S)-1-cyclopropanesulfonylaminocarbonyl-2-vinyl-cyclopropyl)-amide] | 1 to 50 | 1 to 50 |  |  |
| COC1(c2ccc(-c3ccccc3)cc2)CC(C(=O)NC2(C(=O)NS(=O)(=O)C3CC3)CC2C(F)F)N(C(=O)C(NC(=O)OC(C)(C)C)C(C)(C)C)C1 (stereo not shown) [Cmpd 109] | 1 to 50 | 50 to 500 |  |  |
| C=C[C@@H]1C[C@]1(NC(=O)[C@@H]1C[C@@](OC)(c2ccc(-c3ccccc3)cc2)CN1C(=O)[C@@H](NC(=O)OC12CC3CC(CC(C3)C1)C2)C(C)(C)C)C(=O)NS(=O)(=O)C1CC1 [Cmpd 204, {(S)-1-[(2S,4R)-4-Biphenyl-4-yl-2-((S)-(1R,2S)-1-cyclopropanesulfonylaminocarbonyl-2-vinyl-cyclopropylcarbamoyl)-4-methoxy-pyrrolidine-1-carbonyl]-2,2-dimethyl-propyl}-carbamic acid adamantan-1-yl ester] | 1 to 50 | 1 to 50 |  |  |
| C=C[C@@H]1C[C@]1(NC(=O)[C@@H]1C[C@@](OC)(c2ccc(-c3ccccc3)cc2)CN1C(=O)[C@H](Nc1ccc(F)c(F)c1)C(C)(C)C)C(=O)NS(=O)(=O)C1CC1 [Cmpd 210, (2S,4R)-4-Biphenyl-4-yl-1-[(R)-2-(3,4-difluoro-phenylamino)-3,3-dimethyl-butyryl]-4-methoxy-pyrrolidine-2-carboxylic acid ((1R,2S)-1-cyclopropanesulfonylaminocarbonyl-2-vinyl-cyclopropyl)-amide] | > 500 | > 500 |  |  |
| C=C[C@@H]1C[C@]1(NC(=O)[C@@H]1C[C@@](OC)(c2ccc(-c3ccccc3)cc2)CN1C(=O)[C@H](Cc1ccc(C(C)(C)C)cc1)NC(=O)OC(C)(C)C)C(=O)NS(=O)(=O)C1CC1 [Cmpd 211] |  |  | 1600 |  |
